Test results: ChEMBL document CHEMBL2073784, “Involvement of organic anion transporting polypeptides in the transport of troglitazone sulfate: implications for understanding troglitazone hepatotoxicity” (Drug Metab Dispos, 2004)
Counter-ions that a name gives are not always drawn. One block for each compound: values may come before it.

Columns and labels:
[1] = target: T1, OATP8 (OATP1B3, SLCO1B3) (Homo sapiens, UniProt Q9NPD5); assay: TP_TRANSPORTER: inhibition of estrone-3-sulfate uptake (Estrone-3-sulfate: 9.2 nM) by Pioglitazone at a concentration of 10uM in OATP8-expressing Xenopus oocytes; format: functional, cell-based, Oocyte; conditions: xenopus laevis, Xenopus laevis oocytes expressing OATP8, probe estrone-3-sulfate
T1 sequence (Q9NPD5 whole entry): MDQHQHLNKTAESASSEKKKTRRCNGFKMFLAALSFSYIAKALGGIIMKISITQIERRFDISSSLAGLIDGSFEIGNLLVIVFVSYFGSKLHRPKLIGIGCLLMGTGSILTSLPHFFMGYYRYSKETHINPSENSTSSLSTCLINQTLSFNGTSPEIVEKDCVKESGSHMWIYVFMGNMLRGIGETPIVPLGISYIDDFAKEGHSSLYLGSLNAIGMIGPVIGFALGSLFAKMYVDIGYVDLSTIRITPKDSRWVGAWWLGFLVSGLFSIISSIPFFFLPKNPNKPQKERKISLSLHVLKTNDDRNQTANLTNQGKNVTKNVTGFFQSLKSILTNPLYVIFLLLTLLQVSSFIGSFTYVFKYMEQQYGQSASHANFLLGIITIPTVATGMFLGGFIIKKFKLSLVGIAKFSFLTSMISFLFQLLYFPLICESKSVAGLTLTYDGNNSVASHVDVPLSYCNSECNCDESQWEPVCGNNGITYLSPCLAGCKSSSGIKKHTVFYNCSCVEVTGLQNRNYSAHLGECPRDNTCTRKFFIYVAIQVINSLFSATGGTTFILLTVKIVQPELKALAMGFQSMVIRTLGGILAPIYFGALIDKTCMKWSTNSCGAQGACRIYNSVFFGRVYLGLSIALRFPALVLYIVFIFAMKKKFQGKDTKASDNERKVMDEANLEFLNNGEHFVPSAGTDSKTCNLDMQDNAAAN

[2] = target: T2, OATP-C (OATP1B1, SLCO1B1) (Homo sapiens, UniProt Q9Y6L6); assay: TP_TRANSPORTER: inhibition of estrone-3-sulfate uptake (Estrone-3-sulfate: 9.2 nM) by Pioglitazone at a concentration of 10uM in OATP-C-expressing Xenopus oocytes; format: functional, cell-based, Oocyte; conditions: xenopus laevis, probe estrone-3-sulfate
T2 sequence (Q9Y6L6 whole entry): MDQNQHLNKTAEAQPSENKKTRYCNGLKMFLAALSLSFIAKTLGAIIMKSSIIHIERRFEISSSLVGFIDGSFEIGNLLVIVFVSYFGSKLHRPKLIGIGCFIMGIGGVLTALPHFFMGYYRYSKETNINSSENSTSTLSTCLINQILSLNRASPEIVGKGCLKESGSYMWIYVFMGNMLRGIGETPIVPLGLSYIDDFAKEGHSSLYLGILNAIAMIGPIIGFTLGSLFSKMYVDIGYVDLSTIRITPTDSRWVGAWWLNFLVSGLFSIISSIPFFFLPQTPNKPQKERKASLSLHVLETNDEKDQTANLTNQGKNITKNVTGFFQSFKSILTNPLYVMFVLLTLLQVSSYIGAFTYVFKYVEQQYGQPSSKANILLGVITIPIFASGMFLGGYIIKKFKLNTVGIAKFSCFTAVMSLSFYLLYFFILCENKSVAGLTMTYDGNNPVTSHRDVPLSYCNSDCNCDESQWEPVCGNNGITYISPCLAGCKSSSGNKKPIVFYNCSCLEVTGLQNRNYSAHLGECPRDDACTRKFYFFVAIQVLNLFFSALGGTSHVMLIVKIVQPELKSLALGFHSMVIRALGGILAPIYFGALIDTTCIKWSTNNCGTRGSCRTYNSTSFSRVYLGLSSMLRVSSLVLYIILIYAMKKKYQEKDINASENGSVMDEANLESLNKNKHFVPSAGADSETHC

[3] = target: T1, OATP8 (OATP1B3, SLCO1B3); assay: TP_TRANSPORTER: inhibition of estrone-3-sulfate uptake (Estrone-3-sulfate: 9.2 nM) by Troglitazone sulfate at a concentration of 10uM in OATP8-expressing Xenopus oocytes; format: functional, cell-based, Oocyte; conditions: xenopus laevis, Xenopus laevis oocytes expressing OATP8, probe estrone-3-sulfate
[4] = target: T2, OATP-C (OATP1B1, SLCO1B1); assay: TP_TRANSPORTER: inhibition of estrone-3-sulfate uptake (Estrone-3-sulfate: 9.2 nM) by Troglitazone sulfate at a concentration of 10uM in OATP-C-expressing Xenopus oocytes; format: functional, cell-based, Oocyte; conditions: xenopus laevis, probe estrone-3-sulfate
[5] = target: T3, Solute carrier organic anion transporter family member 1B1 (Homo sapiens, UniProt Q9Y6L6); assay: TP_TRANSPORTER: cell accumulation in OATP-C-expressing Xenopus oocytes; format: functional, cell-based; conditions: xenopus laevis, oocyte
T3 sequence (Q9Y6L6 whole entry): T2 sequence (Q9Y6L6 whole entry)

[6] = target: T3, Solute carrier organic anion transporter family member 1B1; assay: TP_TRANSPORTER: uptake in OATP1B1-expressing HEK293 cell; format: functional, cell-based
[7] = target: T4, OATP1B1 (SLCO1B1) (Homo sapiens, UniProt Q9Y6L6); assay: TP_TRANSPORTER: inhibition of Estrone-3-sulfate uptake(Estrone-3-sulfate: 9.2nM) in Xenopus laevis oocytes; format: functional, cell-based, Oocyte; parameters: scale not given: the % may be the effect or the level left; conditions: probe estrone-3-sulfate
T4 sequence (Q9Y6L6 whole entry): T2 sequence (Q9Y6L6 whole entry)

[8] = target: T3, Solute carrier organic anion transporter family member 1B1; assay: TP_TRANSPORTER: inhibition of E1S uptake (SN38 G 10 u M) in OATP1B1-expressing HEK293 cells; format: functional, cell-based; conditions: hek293, 10 µM
[9] = target: T2, OATP-C (OATP1B1, SLCO1B1); assay: TP_TRANSPORTER: inhibition of estrone-3-sulfate uptake (Estrone-3-sulfate: 9.2 nM) by Troglitazone glucuronide at a concentration of 10uM in OATP-C-expressing Xenopus oocytes; format: functional, cell-based, Oocyte; conditions: xenopus laevis, probe estrone-3-sulfate
[10] = target: T5, Solute carrier organic anion transporter family member 1B3 (Homo sapiens, UniProt Q9NPD5); assay: TP_TRANSPORTER: uptake of SN-38 at a concentration of 0.09uL/oocyte in Xenopus laevis oocytes; format: functional, cell-based
T5 sequence (Q9NPD5 whole entry): T1 sequence (Q9NPD5 whole entry)

[11] = target: T3, Solute carrier organic anion transporter family member 1B1; assay: TP_TRANSPORTER: uptake of SN-38 at a concentration of 0.16uL/oocyte in Xenopus laevis oocytes; format: functional, cell-based
[12] = target: T3, Solute carrier organic anion transporter family member 1B1; assay: TP_TRANSPORTER: uptake in OATP1B1-expressing HEK293 cells; format: functional, cell-based
[13] = target: T6, Solute carrier organic anion transporter family member 2B1 (Homo sapiens, UniProt O94956); assay: TP_TRANSPORTER: uptake of SN-38 at a concentration of 0.10uL/oocyte in Xenopus laevis oocytes; format: functional, cell-based
T6 sequence (O94956 whole entry): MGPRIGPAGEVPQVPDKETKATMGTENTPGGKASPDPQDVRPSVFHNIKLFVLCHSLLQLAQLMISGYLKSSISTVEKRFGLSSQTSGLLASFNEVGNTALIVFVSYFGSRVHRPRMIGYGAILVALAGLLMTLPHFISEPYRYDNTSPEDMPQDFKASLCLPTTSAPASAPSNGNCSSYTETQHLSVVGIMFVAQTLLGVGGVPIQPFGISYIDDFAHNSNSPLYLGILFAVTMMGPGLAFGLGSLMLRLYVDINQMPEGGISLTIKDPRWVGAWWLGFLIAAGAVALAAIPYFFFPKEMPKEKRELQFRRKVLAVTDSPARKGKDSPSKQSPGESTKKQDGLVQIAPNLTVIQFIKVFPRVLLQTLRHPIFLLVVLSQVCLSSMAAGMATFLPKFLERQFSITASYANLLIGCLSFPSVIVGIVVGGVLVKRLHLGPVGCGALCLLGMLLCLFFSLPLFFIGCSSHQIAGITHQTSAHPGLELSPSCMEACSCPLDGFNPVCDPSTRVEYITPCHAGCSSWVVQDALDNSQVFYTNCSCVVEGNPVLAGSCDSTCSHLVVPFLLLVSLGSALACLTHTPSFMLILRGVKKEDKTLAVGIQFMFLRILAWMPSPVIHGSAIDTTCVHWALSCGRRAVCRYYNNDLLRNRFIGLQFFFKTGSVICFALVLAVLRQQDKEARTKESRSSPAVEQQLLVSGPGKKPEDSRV

[14] = target: T3, Solute carrier organic anion transporter family member 1B1; assay: TP_TRANSPORTER: inhibition of E1S uptake (SN38 10 u M) in OATP1B1-expressing HEK293 cells; format: functional, cell-based; parameters: scale not given: the % may be the effect or the level left; conditions: hek293, 10 µM
[15] = target: T5, Solute carrier organic anion transporter family member 1B3; assay: TP_TRANSPORTER: cell accumulation in OATP8-expressing Xenopus oocytes; format: functional, cell-based; conditions: xenopus laevis, oocyte
[16] = target: T1, OATP8 (OATP1B3, SLCO1B3); assay: TP_TRANSPORTER: inhibition of estrone-3-sulfate uptake (Estrone-3-sulfate: 9.2 nM) by Quinone Form at a concentration of 10uM in OATP8-expressing Xenopus oocytes; format: functional, cell-based, Oocyte; conditions: xenopus laevis, Xenopus laevis oocytes expressing OATP8, probe estrone-3-sulfate
[17] = target: T2, OATP-C (OATP1B1, SLCO1B1); assay: TP_TRANSPORTER: inhibition of estrone-3-sulfate uptake (Estrone-3-sulfate: 9.2 nM) by Quinone Form at a concentration of 10uM in OATP-C-expressing Xenopus oocytes; format: functional, cell-based, Oocyte; conditions: xenopus laevis, probe estrone-3-sulfate
[18] = target: T4, OATP1B1 (SLCO1B1); assay: TP_TRANSPORTER: inhibition of E1S uptake (irinotecan 10 u M) in OATP1B1-expressing HEK293 cells; format: functional, cell-based; parameters: scale not given: the % may be the effect or the level left; conditions: HEK293 cells expressing OATP1B1, probe estrone-3-sulfate (E1S), read-out: Activity
[19] = target: T2, OATP-C (OATP1B1, SLCO1B1); assay: TP_TRANSPORTER: inhibition of estrone-3-sulfate uptake (Estrone-3-sulfate: 9.2 nM) by Rosiglitazone at a concentration of 10uM in OATP-C-expressing Xenopus oocytes; format: functional, cell-based, Oocyte; conditions: xenopus laevis, probe estrone-3-sulfate
[20] = target: T2, OATP-C (OATP1B1, SLCO1B1); assay: TP_TRANSPORTER: inhibition of estrone-3-sulfate uptake (Estrone-3-sulfate: 9.2 nM) by Troglitazone at a concentration of 10uM in OATP-C-expressing Xenopus oocytes; format: functional, cell-based, Oocyte; conditions: xenopus laevis, probe estrone-3-sulfate

Structure (SMILES): CCc1ccc(CCOc2ccc(CC3SC(=O)NC3=O)cc2)nc1 (stereo not given) [PIOGLITAZONE]
inhibition at 10 µM [1]: 65%
inhibition at 10 µM [2]: 70%

Structure (SMILES): CCc1c2c(nc3ccc(OC[C@@H]4O[C@H](C(=O)O)[C@@H](O)[C@H](O)[C@H]4O)cc13)-c1cc3c(c(=O)n1C2)COC(=O)[C@]3(O)CC
Activity [6]: is not a substrate [-]
Activity [7]: 45%
Activity [8]: is not an inhibitor [-]

Structure (SMILES): CCc1c2c(nc3ccc(O)cc13)-c1cc3c(c(=O)n1C2)COC(=O)[C@]3(O)CC [7-ETHYL-10-HYDROXYCAMPTOTHECIN]
Activity [10]: is not a substrate [-]
Activity [6]: substrate [+]
Activity [7]: 85%
Activity [11]: substrate [+]
Activity [12]: substrate []
Activity [13]: is not a substrate [-]
Activity [14]: 50%

Structure (SMILES): C[C@]12CC[C@@H]3c4ccc(OS(=O)(=O)O)cc4CC[C@H]3[C@@H]1CCC2=O [ESTRONE SULFURIC ACID]
Activity [15]: substrate []
Activity [5]: substrate []

Structure (SMILES): CCc1c2c(nc3ccc(OC(=O)N4CCC(N5CCCCC5)CC4)cc13)-c1cc3c(c(=O)n1C2)COC(=O)[C@]3(O)CC [IRINOTECAN]
Activity [6]: is not a substrate [-]
Activity [7]: 60%
activity at 10 µM [18]: 60%

Structure (SMILES): CN(CCOc1ccc(CC2SC(=O)NC2=O)cc1)c1ccccn1 (stereo not given) [ROSIGLITAZONE]
inhibition at 10 µM [19]: 60%

Second part, the compound after the results:

inhibition at 10 µM [3]: 20%
inhibition at 10 µM [4]: 5%
Activity [5]: substrate []
Structure (SMILES): Cc1c(C)c2c(c(C)c1OS(=O)(=O)O)CCC(C)(COc1ccc(CC3SC(=O)NC3=O)cc1)O2 (stereo not given) [TROGLITAZONE SULFATE]

inhibition at 10 µM [9]: 30%
Structure (SMILES): Cc1c(C)c2c(c(C)c1O[C@@H]1O[C@H](C(=O)O)[C@@H](O)[C@H](O)[C@H]1O)CCC(C)(COc1ccc(CC3SC(=O)NC3=O)cc1)O2 (stereo not given in full) [TROGLITAZONE GLUCURONIDE]

inhibition at 10 µM [16]: 60%
inhibition at 10 µM [17]: 20%
Structure (SMILES): CC1=CC(=O)C(C)=C(CCC(C)(C)COc2ccc(CC3SC(=O)NC3=O)cc2)C1=O (stereo not given) [QUINONE FORM]

inhibition at 10 µM [20]: 35%
Structure (SMILES): Cc1c(C)c2c(c(C)c1O)CCC(C)(COc1ccc(CC3SC(=O)NC3=O)cc1)O2 (stereo not given) [TROGLITAZONE]
